According to publication PMC11039692, “SRY-Box transcription factor 9 triggers YAP nuclear entry via direct interaction in tumors” (Signal Transduction and Targeted Therapy, 2024):

Legend:
YAP-TEAD = experiment: 8×GTIIC YAP-TEAD luciferase reporter assay; type: cell-based
Method: Huh-7 cells were transfected with a vector expressing full-length or truncated SOX9 together with a TEAD4-related reporter plasmid, 8×GTIIC (RIKEN, Japan). The pRL-SV40 (Promega, E2261) vector was transfected into all the treated cells and was used to normalize the data. Luciferase reporter gene assays were assayed with the Dual-Luciferase Reporter Assay System (Promega, E2920). All experiments were replicated a minimum of three times.

YAP [1] = target: T1, YAP (Homo sapiens, UniProt P46937); experiment: YAP nuclear level / nuclear translocation in Huh-7 cells; type: cell-based; conditions: for nuclear transport of YAP: HCC cells (Huh-7), PRMT1 inhibitor MS023 200 nM or siPRMT1
Method: Huh-7 cells were infected with lenti-YAP-linker-EGFP-rtTA3 followed by infection with lenti-SOX9-linker-mCherry-rtTA3, with selection using puromycin (Sigma-Aldrich, P9620) or Blasticidin S hydrochloride (Yeasen,60218ES10), and then plated on confocal 6-well plates (Biosharp, BS-15-GJM) at a suitable concentration. Approximately 1 h after doxycycline (DOX, Yeasen, 60204ES03) treatment, live cell images were captured every 30 min using an Olympus SpinSR10 microscope at ×200 magnification. For the PLA, the pretreated cell samples were fixed after DOX induction for 12 h. DOX was administered to the infected Huh-7 cells at a concentration of 1 μg/mL.
(§1) Cytoplasmic and nuclear fractionation was accessed by the Minute^TM Cytoplasmic and Nuclear Fractionation kit (Invent, SC-003) following the manufacturer’s recommendations with some modifications made by us to optimize the protocol. Cells were resuspended in pre-chilled cytoplasm extraction buffer and incubated on ice for 5 min. After a thorough one-minute vortex, the supernatant (cytoplasmic proteins) was obtained by centrifuging at 12,000 rpm for 5 min. To eliminate cytoplasmic proteins, the pellet was washed with pre-chilled PBS, and subsequently resuspended in a nuclear extraction buffer. The sample was vortexed thoroughly for 3 min in an ice bath, and these steps were repeated four times. The precipitate was discarded, and the supernatant (nuclear proteins) was saved for further analysis.

SOX9 = SOX9 nuclear level in Huh-7 cells; type: cell-based; conditions: CDZ 5 nM, 24 h
Method: as §1

SOX9^KO Huh-7 cells = experiment: Proliferation of SOX9KO Huh-7 cells; type: cell-based; conditions: SOX9^KO Huh-7 cells treated with Pep-peptides
YAP-SOX9 interaction [2] = experiment: Co-IP of SOX9-YAP interaction in cells; type: cell-based; conditions: V5-IP
Method: (§2) For protein preparation, cells were lysed in 2× sodium dodecyl sulfate (SDS) protein lysis buffer (4% SDS, 20% glycerol, 100 mM Tris-Cl [pH 6.8], with PMSF or other protease inhibitors). For co-immunoprecipitation (Co-IP), samples were prepared using Pierce^TM IP lysis buffer (Thermo Fisher Scientific, 87787) following the manufacturer's recommendations. Lysates were centrifuged at 12,000 rpm for 10 min, and the supernatants were collected. The protein concentration was determined using a BCA kit (Beyotime, P0010, Shanghai, China). For Co-IP samples, 1 mg of protein was precipitated with 20 μL of agarose-conjugated antibodies. For immunoblotting, protein samples were separated using SDS-polyacrylamide gel electrophoresis and then transferred onto nitrocellulose membranes (Millipore, HAHY00010).

Hep3B cells = experiment: Proliferation of HCC cells; type: cell-based
HCC cells = experiment: Proliferation of Huh-7 / HCC cells; type: cell-based
YAP-SOX9 interaction [3] = experiment: PLA of SOX9-YAP interaction in cells; type: cell-based; conditions: HCC cells (DOX-induced Huh-7), peptides 10 μM, 24 h
Method: The pretreated cell samples were grown on coverslips, fixed in 4% paraformaldehyde (PFA) for 15 minutes, and then washed two times in PBS. Following a 1-hour incubation at 37 °C with blocking solution® (Sigma-Aldrich, DUO82007), the cells were incubated with primary antibodies at optimal concentrations overnight at 4 °C. After three washes in Buffer A® (Sigma-Aldrich, DUO82049), the samples were incubated with a 1:5 dilution of PLUS® and MINUS® Duolink In Situ PLA Probe (Sigma-Aldrich, DUO92002 and DUO92004) for 1 hour at 37 °C. Three additional washes in Buffer A® preceded a 30-minute incubation with 1 unit/μL of T4 DNA ligase diluted in ligase buffer (1:5, Sigma-Aldrich, DUO92013) at 37 °C. Subsequently, cells were washed three times again in Buffer A® and treated with 5 units/μL of DNA polymerase in diluted polymerase buffer (1:5, Sigma-Aldrich, DUO92013) for 100 min at 37 °C. Finally, cells were washed twice for 10 minutes each in 1× Buffer B® (Sigma-Aldrich, DUO82049), then quickly washed for 1 min in 0.01× Buffer B®. The slides were mounted using DUOlink in situ mounting medium containing DAPI, and the images were captured using a Leica TCS SP8 confocal microscope.

CTGF, CYR61 and AREG = experiment: qPCR of YAP-target genes in cells; type: cell-based; conditions: Huh-7 cells, 10 μM
Method: (§3) Total RNA was isolated from cells or tissues with RNAiso Plus Reagent (TaKaRa, 9108). SuperScript Ⅲ reverse transcriptase (Invitrogen,18080093) was employed to synthesize first-strand cDNA. Real-time PCR was performed in an ABI Step One Real-time Detection System (Life Technologies) using SYBR Green (Takara, RR420A). The primer sequences are listed in supplementary Table 2.

Huh-7 xenograft = experiment: Huh-7 subcutaneous xenograft model; type: in vivo, BALB/c nude mice
Method: (§4) Huh-7 cells (1×106) or Huh-7 cells infected with different viruses were injected subcutaneously into the right flank of male athymic BALB/c nude mice (5 weeks old). Tumor volumes were measured and analyzed using the equation: volume = π/6×length×(width)2.Once the average tumor volume reached approximately 60 mm3, the mice were randomly divided into five groups (eight mice per group) and treated with intratumorally injections of Pep-S-A1, Pep-D125A, or saline twice weekly. For the orthotopic HCC model, 1×10^6 Huh-7 cells expressing luciferase were injected subcutaneously into the right flank of BALB/c nude mice to establish tumor xenografts. The tumor nodules derived from xenograft model and then were divided into 1 mm3 pieces and subsequently implanted into the left lobe of the livers of 5-week-old male BALB/c nude mice to mimic primary HCC. The mice were randomly separated into two groups (eight animals per group) according to the bioluminescence 3 days after implantation. Pep-S-A1 or Pep-D125A was then injected via the tail vein every 5 days. The mice were regularly monitored using a luminal imaging system (Caliper) once each week and killed 2 weeks post tumor fragments transplanted.

[4] = tested on: luciferase-expressing Huh-7 tumors; experiment: Orthotopic HCC model; type: in vivo, BALB/c nude mice; conditions: 2-week delivery
Method: as §4

SOX9-HMG domain = target: T2, SOX9-HMG domain (Homo sapiens, UniProt P48436); experiment: MST binding to SOX9-HMG domain; conditions: 50 mM Tris-HCl pH 7.4, 150 mM NaCl, 0.05% Tween-20, effect of R124K mutation on YAP peptide (aa 115–135)
T2 construct: made in house; host or cells: Escherichia coli
Method: (§5) His-tagged YAP and the SOX9-HMG domain purified from Escherichia coli were labeled with 25 nM RED-tris-NTA 2nd Generation dye at room temperature for 10 min. Then, the labeled protein was incubated with a serially diluted peptide or protein for 10 min at room temperature. MST buffer containing 50 mM Tris-HCl [pH 7.4], 150 mM NaCl, and 0.05% Tween-20 was used in all measurements. The solution was centrifuged for 10 min at 4 °C and 15,000 g, and the supernatant was transferred to a fresh tube. The sample was loaded into the capillaries and measured at 40% LED/excitation power and medium MST power. The KD was determined in MO. Affinity Analysis using the KD fit.

YAP [5] = target: T1, YAP; experiment: MST binding to YAP protein; parameters: made in house; host or cells: Escherichia coli; conditions: 50 mM Tris-HCl pH 7.4, 150 mM NaCl, 0.05% Tween-20, effect of D125A mutation on S-A1 binding
Method: as §5

Huh-7 cells = experiment: TEAD activity and oncogenic properties of Huh-7 cells; type: cell-based; conditions: Huh-7 cells treated with Lenti-YAP and siPrmt1 simultaneously
YAP-R124me2a = YAP-R124me2a level in cells (immunoblot); type: cell-based; conditions: Huh-7 cells co-transfected with V5-YAP and siPRMT1
Method: as §2

PLC cells = experiment: YAP-induced gene expression and malignant features of PLC cells; type: cell-based; conditions: PLC cells infected with lenti-YAP; siRNA 20 nmol/L
Method: as §3

ovarian cancer = conditions: cited from earlier work
Source text: (§6) The formation of YAP-partner complexes under certain pathological conditions makes YAP an ideal drug target.[44]–[46] […] In light of this, impeding ...

YAP-TEAD interaction = conditions: cited from earlier work
Source text: as §6

T1 sequence (P46937 whole entry): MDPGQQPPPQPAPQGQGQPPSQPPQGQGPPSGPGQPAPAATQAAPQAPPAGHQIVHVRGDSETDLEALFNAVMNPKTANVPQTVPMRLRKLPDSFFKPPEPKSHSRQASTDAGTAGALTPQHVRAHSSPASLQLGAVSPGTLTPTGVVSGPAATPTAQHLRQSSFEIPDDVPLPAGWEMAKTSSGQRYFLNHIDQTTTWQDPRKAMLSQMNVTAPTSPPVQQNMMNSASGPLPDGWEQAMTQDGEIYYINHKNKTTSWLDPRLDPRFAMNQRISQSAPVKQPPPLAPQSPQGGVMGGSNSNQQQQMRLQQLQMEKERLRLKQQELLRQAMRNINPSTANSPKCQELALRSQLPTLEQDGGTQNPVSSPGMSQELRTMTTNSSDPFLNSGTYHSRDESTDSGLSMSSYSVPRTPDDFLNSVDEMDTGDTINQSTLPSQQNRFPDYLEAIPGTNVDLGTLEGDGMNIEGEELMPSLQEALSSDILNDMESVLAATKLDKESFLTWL
T2 sequence (P48436 98-181): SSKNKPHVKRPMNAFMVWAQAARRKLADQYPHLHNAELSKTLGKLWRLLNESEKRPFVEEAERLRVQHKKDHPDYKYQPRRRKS

Clc1ccc(C(c2ccc(Cl)cc2)n2cc[n+](CC(OCc3ccc(Cl)cc3Cl)c3ccc(Cl)cc3Cl)c2)cc1 (centres unmarked) [CDZ, calmidazolium chloride]
transactivation of the YAP-TEAD reporter (YAP-TEAD; CDZ 5 nM, 24 h, Huh-7 cells overexpressing YAP or YAP^S127A, 8×GTIIC reporter): significantly inhibited nuclear translocation of YAP and the transactivation of the YAP-TEAD reporter
nuclear translocation of YAP (YAP [1]; CDZ 5 nM, 24 h, Huh-7 cells transfected with V5-YAP, fractionation and immunoblot): significantly inhibited nuclear translocation of YAP
nuclear level of SOX9 (SOX9): decreased the nuclear level of SOX9

CC(C)Oc1ccc(-c2c[nH]cc2CN(C)CCN)cc1 [MS023]
nuclear transport of YAP (YAP [1]; fractionation and immunoblot): remarkedly blocked the nuclear transport of YAP in HCC cells

Pep-S-A1: S-A1 linked to a cell-penetrating peptide (Pep) via a di-glycine linker (HLYVSPWGGAFMVWAQAARRKLADQ)
YAP-TEAD activity (YAP-TEAD; Huh-7 cells, 8×GTIIC reporter, 10 μM): suppressed YAP-TEAD activity
proliferation of SOX9KO Huh-7 cells (SOX9^KO Huh-7 cells): had no effect on SOX9^KO Huh-7 cells
nuclear YAP levels (YAP [1]; Huh-7 cells, live cell-imaging): reduced nuclear YAP levels
disruption of YAP-SOX9 interaction (Co-IP) (YAP-SOX9 interaction [2]; HCC cells (Huh-7), peptides at indicated concentrations for 24 h): disrupted the YAP-SOX9 interaction in HCC cells in a dose-dependent manner
proliferation of Hep3B cells (Hep3B cells): inhibited the proliferation of Hep3B cells
HCC cell proliferation (HCC cells): inhibited HCC cell proliferation
disruption of YAP-SOX9 interaction (PLA) (YAP-SOX9 interaction [3]): disrupted the YAP-SOX9 interaction in HCC cells in a dose-dependent manner
YAP-target gene expression (CTGF, CYR61 and AREG): inhibited YAP-target gene expression
YAP nuclear staining in tumor tissues (Huh-7 xenograft; Huh-7 xenograft, IHC, 8 mg/kg): reduced YAP nuclear staining
downstream gene transcription in tumor tissues (Huh-7 xenograft; Huh-7 xenograft, qPCR of CTGF, CYR61 and AREG): reduced YAP nuclear staining and downstream gene transcription in the tumor tissues
tumor growth (Huh-7 subcutaneous xenograft) (Huh-7 xenograft; nude mice, intratumoral injection, twice weekly (day 1 and day 4), eight mice per group): dose-dependently suppressed tumor growth
YAP nuclear aggregation in tumor tissues ([4]; orthotopic HCC, IHC, tail vein every 5 days): notably inhibited YAP nuclear aggregation
downstream gene expression in tumor tissues ([4]; orthotopic HCC, qPCR of CTGF, CYR61 and AREG): notably inhibited YAP nuclear aggregation and downstream gene expression in the tumor tissues
emitted bioluminescence ([4]; orthotopic HCC, tail vein every 5 days, compared with Pep-D125A, eight animals per group): significantly reduced the emitted bioluminescence
tumor growth (orthotopic HCC) ([4]; tail vein every 5 days, compared with Pep-D125A, eight animals per group): significantly reduced the emitted bioluminescence and tumor growth compared with Pep-D125A

R124K: YAP peptide (aa 115–135) with R124K mutation (AGALTPQHVKAHSSPASLQLG; UniProt P46937 115-135, looked up, variant R124K)
binding to SOX9-HMG (MST) (SOX9-HMG domain): abolished

S-A1-D125A: S-A1 peptide with D125A mutation (AFMVWAQAARRKLAAQ)
binding to YAP (MST) (YAP [5]): abolished this binding

siPRMT1: siRNA GAGUUCACACGCUGCCACAtt (guide GAGUUCACACGCUGCCACATT; chemistry not given here)
YAP activity (8×GTIIC reporter) (YAP-TEAD; Huh-7 cells transfected with siPRMT1): decreased YAP activity
TEAD activity and oncogenic properties triggered by YAP (Huh-7 cells): significantly reversed the elevated TEAD activity and oncogenic properties of Huh-7 cells triggered by YAP
nuclear transport of YAP (YAP [1]; fractionation and immunoblot): remarkedly blocked the nuclear transport of YAP in HCC cells
YAP-SOX9 interaction (YAP-SOX9 interaction [2]; Huh-7 cells co-transfected with V5-YAP and siPRMT1): reduced YAP-SOX9 interaction
YAP-R124me2a level (YAP-R124me2a): decreased the YAP-R124me2a level

siSOX9: siRNA CCACCUUCACCUACAUGAAtt (guide CCACCUUCACCUACAUGAATT; chemistry not given here)
YAP-induced gene expression and malignant features (PLC cells): notably attenuate the YAP-induced gene expression and malignant features of PLC cells

verteporfin
ovarian cancer growth in mice (ovarian cancer): suppressed ovarian cancer growth in mice
YAP-TEAD interaction (YAP-TEAD interaction): blocked the YAP-TEAD interaction
